One data set has as its system tumor. To be noted: in vivo; cited from earlier work.
A short description of data set [1]: Solubility of tricyclic derivative compound in solubilizing agents (HPLC). The data set is classed as physicochemical. As to the method:
The solubility of the tricyclic derivative compound in a solubilizing agent was measured in the following manner.

The nature of data set [2]: Solubility of tricyclic derivative compound in water (HPLC). The data set is classed as physicochemical. To be noted: distilled water, room temperature, stirred 24 hours, 0.2 μm filtrate. As to the method: The solubility of the tricyclic derivative compound of Formula 1 in water was measured in the following manner.
1.42 mg of the tricyclic derivative compound was dissolved in acetonitrile to prepare […] of a solution which was then serially diluted to prepare 50 μl/ml, 20 μl/ml and 10 μl/ml of standard solutions. 3-ethoxythiocolchicine as an internal standard was added to each of the standard solutions which were then analyzed by HPLC to measure the area ratio of the tricyclic derivative compound.
Then, 1 g of the tricyclic derivative compound was added to 10 ml of distilled water to make a suspension which was then stirred at room temperature for 24 hours to sufficiently dissolve the compound. Then, the suspension was filtered through a 0.2 μm membrane to remove insoluble materials, and the remaining filtrate was analyzed by HPLC using 3-ethoxythiocolchicine as an internal standard to measure the area ratio of the tricyclic derivative compound, which was then compared with the area ratio of the standard curve shown in FIG. 1, thereby determining the concentration of the tricyclic derivative compound dissolved in water.

The next data set has as its system HUVEC cells. To be noted: cited from earlier work.
The conditions of data set [3]: compared to a colchicine or taxol injection; cited from earlier work.
Another data set relates to cancer cell lines. To be noted: cited from earlier work.

Molecules are shown by their SMILES. Converted amounts (≈) assume the structure as drawn. Where only a bound is given, the exact number is not on record here.

Usually solubility stands for the concentration that dissolves in the medium under given conditions. As for `CCOc1cc2c(c(OC)c1OC)-c1ccc(SC)c(=O)cc1[C@@H](NC(=O)c1cccc(CO[N+](=O)[O-])c1F)CC2` [tricyclic derivative compound], the “tumor size and weight” value in the data set with tumor was “significantly reduces the tumor size and weight”. For the same molecule, the Solubility result in data set [1] (PEG 400:water 0:100), in data set [1] (solvent: 5% aqueous solution of hydrochloric acid), in data set [1] (solvent: 5% aqueous solution of sodium hydrogen carbonate), in data set [1] (solvent: 5% aqueous solution of sodium oxide) and in data set [1] (solvent: Water) was “Not detected” in each case. The solubility at 24 h is 0.21 µg/mL (≈ 0.359 µM) in data set [1] (PEG 400:water 10:90, aqueous with cosolvent or surfactant or cyclodextrin); 2.94 µg/mL (≈ 5.03 µM) in data set [1] (PEG 400:water 20:80, aqueous with cosolvent or surfactant or cyclodextrin); 1.24 µg/mL (≈ 2.12 µM) in data set [1] (PEG 400:water 30:70, aqueous with cosolvent or surfactant or cyclodextrin); 53.9 µg/mL (≈ 92.3 µM) in data set [1] (PEG 400:water 40:60, aqueous with cosolvent or surfactant or cyclodextrin); 189 µg/mL (≈ 323 µM) in data set [1] (PEG 400:water 50:50, aqueous with cosolvent or surfactant or cyclodextrin); 52000 µg/mL (≈ 89000 µM) in data set [1] (PEG 400:water 100:0, organic solvent or mixture). Also, the solubility at 24 h in data set [1] (benzyl alcohol, organic solvent or mixture, solvent: Benzylalcohol) was more than 103000 µg/mL; in data set [1] (organic solvent or mixture, solvent: Ethanol) it was 35 µg/mL (≈ 59.9 µM); in data set [1] (organic solvent or mixture, solvent: Glycerin), 4.8 µg/mL (≈ 8.21 µM); in data set [1] (organic solvent or mixture, solvent: N,N-dimethylacetamide), more than 218000 µg/mL; in data set [1] (organic solvent or mixture, solvent: Polyethylene glycol 400 (PEG 400)) it was 52000 µg/mL (≈ 89000 µM); in data set [1] (organic solvent or mixture, solvent: Propylene glycol), 2300 µg/mL (≈ 3930 µM). The molecule also showed a solubility in water in data set [2] of 0.00 μl/ml. For the same molecule, the angiogenesis inhibitory activity result with HUVEC cells is “strong angiogenesis inhibitory activity”. Moreover, the “toxicity in animal toxicity test” value in data set [3] was “significantly reduced toxicity”. For the same molecule, the “cytotoxicity against cancer cell lines” value in the data set with cancer cell lines was “very strong cytotoxicity”.
